Data set [1] can be described thus: Microsomal metabolic stability. The settings on record: human, microsomes, pH 7.4. On the procedure:
The final incubation volume was 25 μL. […] The reactions were stopped by the addition of 50 μL methanol containing internal standard at the appropriate time points. The incubation plates were centrifuged at 2500 rpm for 20 min at 4 °C to precipitate the protein. Following protein precipitation, the sample supernatants were analyzed using LC-MS/MS. From a plot of ln peak area ratio (compound peak area/internal standard peak area) against time, the gradient of the line was determined. Subsequently, half-life and intrinsic clearance was calculated using the equations below: Elimination rate constant (k) = (− gradient).

The test system of data set [2] is S. typhimurium TA100. Nature of the data set: AMES reverse mutation assay, TA100. It counts as cell-based. The settings on record: TA100, S9 yes. The protocol: (§1) Supplementary file 40035_2019_148_MOESM4_ESM.pdf: Additional file 4: AMES Data Summary. AMES Experimental Procedure. Approximately ten million bacteria are exposed in triplicate to VCE-003-.2 (7.8, 15.6, 31.3, 62.5, 125 and 250 μg/ml), a negative control (vehicle) and a positive control for 90 min in medium containing a low concentration of histidine (sufficient for about 2 doublings). The cultures were then diluted into indicator medium lacking histidine and dispensed into 48 wells of a 384 well plate (micro-plate format, MPF). The plate was incubated for 48 h at 37 °C, and the number of wells showing growth were counted and compared to the vehicle control. An increase in the number of colonies of at least two-fold over baseline (mean + SD of the vehicle control) and a dose response indicates a positive response. […] Where indicated, S9 fraction from the livers of Aroclor 1254-treated rats was included in the incubation at a final concentration of 4.5%. An NADPH-regenerating system is also included to ensure a steady supply of reducing equivalents. The strains used in this study were S. typhimurium TA98 (hisD3052, rfa, uvrB/pKM10 for detection of frame-shift mutations) and S. typhimurium TA100 ([…], rfa, uvrB/pKM101 for detection of base-pair substitutions). VCE-003.2 was assessed for its mutagenic potential in the AMES reverse mutation assay. This test was performed in the absence and presence of S9 metabolic activation. […] The positive controls all behaved as expected. (PDF 568 kb)

In data set [3] the test system is S. typhimurium TA98. Nature of the data set: AMES reverse mutation assay, TA98. Conditions: TA98, S9 yes. It counts as cell-based. On the procedure: as §1
Data set [4] concerns murine models of HD. On the set-up: method as in PMID 25252936. Conditions: 3-nitropropionic acid injection model and R6/2 model, via PPARγ; cited from earlier work.

The half-life is how long it takes for the measured level to halve. A higher half-life goes with slow loss. What is called microsomal CLint is a measure of how fast metabolising enzymes remove a compound, apart from limits set by blood flow. `COc1ccc2c(c1)[C@]13CCCC[C@@H]1[C@H](C2)N(C)CC3` [Dextrom Etorphan, dextromethorphan]: in data set [1], the half-life stood at 58.1 min and the microsomal CLint stood at 23.9 µL/min/mg.

Take `Nc1cccc2cc3ccccc3cc12` [aminoanthracene, reference compound]: the “AMES Result” value in data set [2] and in data set [3] was “Positive” each time.

Turning to `CCCCCc1cc(O)c(C/C=C(\C)CCC=C(C)C)c(O)c1` [CBG, Cannabigerol], in data set [4], the “motor symptoms, neuroinflammation and neurodegeneration in HD models” value was “alleviates motor symptoms, neuroinflammation and neurodegeneration”. For the same molecule, in data set [1], the half-life is 13.4 min and the intrinsic metabolic clearance (microsomal CLint) came to 103 µL/min/mg.

The record behind these values is paper PMC6407204, “Oral administration of the cannabigerol derivative VCE-003.2 promotes subventricular zone neurogenesis and protects against mutant huntingtin-induced neurodegeneration” (Translational Neurodegeneration, 2019).
